According to patent US20170326199A1, “USE OF CASPASE-2 INHIBITORS TO TREAT AND PREVENT THE METABOLIC SYNDROME” (Duke University, priority 2015, published 2017):

How the values were obtained:
[1] = tested on: human caspases (including caspase-2); settings: broad-spectrum (pan-caspase) inhibitor; cited from earlier work
[2] = tested on: other classes of proteases or other enzymes or receptors other than caspases; settings: selectivity; cited from earlier work
caspase-2 = biological target: T1, caspase-2 (Homo sapiens, UniProt P42575); settings: cell-permeable peptide; cited from earlier work
T1 sequence (P42575 1-452): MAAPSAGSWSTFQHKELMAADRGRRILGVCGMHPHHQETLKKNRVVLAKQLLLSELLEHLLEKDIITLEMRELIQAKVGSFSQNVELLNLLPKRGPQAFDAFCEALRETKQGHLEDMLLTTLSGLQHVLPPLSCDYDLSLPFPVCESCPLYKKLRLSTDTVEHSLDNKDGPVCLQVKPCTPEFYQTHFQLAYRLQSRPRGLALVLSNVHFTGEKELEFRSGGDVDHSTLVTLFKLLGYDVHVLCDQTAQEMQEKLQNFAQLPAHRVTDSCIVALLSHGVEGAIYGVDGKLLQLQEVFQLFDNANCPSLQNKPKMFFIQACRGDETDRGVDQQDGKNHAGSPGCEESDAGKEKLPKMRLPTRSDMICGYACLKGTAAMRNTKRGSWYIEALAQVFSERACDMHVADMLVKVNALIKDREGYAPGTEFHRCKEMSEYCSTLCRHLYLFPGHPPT

[3] = tested on: 3T3-L1 cells differentiated in adipocytes; test: Palmitate-induced lipoapoptosis (caspase 3/7 activity, ApoTox-Glo Triplex Assay) in 3T3-L1 adipocytes; format: cell-based; settings: palmitate 1 mM, 48 hours, inhibitor 20 uM, FIG. 4G
Experimental: FIG. 4G. […] Left panel: apoptosis (caspase 3/7 activity) in adipocytes treated with Palmitate 1 mM, 48 hour±caspase-2 inhibitor, VDVAD-FMK 20 uM.
3T3-L1 cells were differentiated in adipocytes as previously described (Zebisch et al., 2012), and differentiation confirmed with Oil red staining. Adipocytes were treated with palmitate 1 mM with or without caspase-2 inhibitor Z-VDVAD-FMK (R&D Systems), 20 uM, for 48 hours. Apoptosis was measured using ApoTox-Glo Triplex Assay (Promega).

C[C@H](NC(=O)C(=O)Nc1ccccc1C(C)(C)C)C(=O)N[C@@H](CC(=O)O)C(=O)COc1c(F)c(F)cc(F)c1F [IDN-6556]
activity against caspases [1]: activity against all tested human caspases (including caspase-2)
inhibition of non-caspase proteases, enzymes or receptors [2]: no inhibition

VDVAD [available as a fluoromethylketone derivative]
inhibition of caspase-2 activity (caspase-2): irreversibly inhibits

Z-VDVAD-FMK
effect on palmitate-induced lipoapoptosis in adipocytes [3]: prevented
